# Measurements reported in patent publication US20010023259A1, “Conjugated fatty acids and related compounds” (Natural ASA, priority 1999, published 2001).
# Test system: Spirulina platensis (Arthrospira sp.) PCC8005
# Test: Incubation of fatty acid substrates with S. platensis; fatty acid composition of extracted lipids by GC
# Assay type: cell-based
# Details: for 6,9,11 - 18:3 (desaturated metabolite), fatty acid composition of lipids extracted from S. platensis / 9,11 - 18:2 (substrate taken up), fatty acid composition of lipids extracted from S. platensis / Amount, total weight of lipid in extract / linoleic acid 18:2, fatty acid composition of lipids extracted from S. platensis / linolenic acid 18:3 (n-6), fatty acid composition of lipids extracted from S. platensis / oleic acid 18:1, fatty acid composition of lipids extracted from S. platensis / palmitic acid 16:0, fatty acid composition of lipids extracted from S. platensis / palmitoleic acid 16:1, fatty acid composition of lipids extracted from S. platensis / stearic acid 18:0, fatty acid composition of lipids extracted from S. platensis: incubation with added 9-cis,11-trans-octadecadienoic acid
# Protocol: Spirulina platensis (Arthrospira sp.) PCC8005 was grown in Zabrouk's medium in 50 ml batch culture in 100 ml erlenmeyer flasks at 30° C. with illumination of 50 μmol photons m^-2 […]. Cultures were harvested following 5 days growth by centrifugation at 40,000 g in a […] rotor in a Beckman Avanti centrifuge 20 minutes, cooled rotor @4° C. The algal pellet was carefully resuspended in fresh Zabrouk's medium under aseptic conditions. Initial time-course experiments were carried out by resuspending the algal pellet in 50 ml fresh medium, which was then divided into 10 ml aliquots, each containing 0.5 ml of 1.8mM ammonium fatty acid substrate and incubating under the above conditions. Control cultures incubated without linoleate were also set up. […] The algal pellet was washed four times in 50 ml freshly drawn MilliQ water and then freeze dried prior to analyses. In later experiments where bulk material was required for a more detailed analysis of the metabolite produced, 4×50 ml cultures were grown and harvested as above. […] Following this incubation the algal material was pelleted, washed and freeze dried as described above. […] The latter were converted to the picolinyl ester derivatives by the procedure of Balazy and Nies, Biomed. Environ. […] The temperature of both the injector and detector was 250° C. Hydrogen was the carrier gas. The analyses were performed with a column (fused silica capillary) coated with carbowax (Chrompack UK Ltd, London, 30 m×[…] i.d.). The oven temperature was programmed from 170 to 220° C. at 4° C./min.
smiles,measurement,setting,value
"CCCCCC#CCC=CCCCCCCCC(=O)O [Crepenynic acid, octadeca-9-en-12-ynoic acid]",C20 homologue formed by chain elongation in the total fatty acids,96 hours incubation,detected
same,desaturation in position 6 by S. platensis,substrate added exogenously,converted to a dehydro-metabolite
same,incorporation into the lipids of S. platensis,substrate added exogenously,taken up
"CCCCCC/C=C/C=C\CCCCCCCC(=O)O [CLA, 9-cis,11-trans-octadecadienoic acid]",recovered CLA isomer converted to the desaturated metabolite,after 24 hours,13%
same,"compound taken up from the surrounding medium, share of lipid",at 24 hrs,27.8 % of lipid
same,"time at which plateau level of the 6,9,11 tri-unsaturated fatty acid is attained",conversion of the di-unsaturated compound,about 72 hours
same,change of relative proportion of oleate with time,"extracts incubated with the CLA isomer, 0-96 h",increased four fold
same,"6,9,11 - 18:3 (desaturated metabolite), fatty acid composition of lipids extracted from S. platensis",0h,0.0 wt %
same,"9,11 - 18:2 (substrate taken up), fatty acid composition of lipids extracted from S. platensis",0h,0.0 wt %
same,"Amount, total weight of lipid in extract",0h,85.3 µg
same,"linoleic acid 18:2, fatty acid composition of lipids extracted from S. platensis",0h,11.7 wt %
same,"linolenic acid 18:3 (n-6), fatty acid composition of lipids extracted from S. platensis",0h,32.2 wt %
same,"oleic acid 18:1, fatty acid composition of lipids extracted from S. platensis",0h,4.9 wt %
same,"palmitic acid 16:0, fatty acid composition of lipids extracted from S. platensis",0h,42.0 wt %
same,"palmitoleic acid 16:1, fatty acid composition of lipids extracted from S. platensis",0h,6.5 wt %
same,"stearic acid 18:0, fatty acid composition of lipids extracted from S. platensis",0h,2.6 wt %
same,"6,9,11 - 18:3 (desaturated metabolite), fatty acid composition of lipids extracted from S. platensis",24h,4.1 wt %
same,"9,11 - 18:2 (substrate taken up), fatty acid composition of lipids extracted from S. platensis",24h,27.8 wt %
same,"Amount, total weight of lipid in extract",24h,170.3 µg
same,"linoleic acid 18:2, fatty acid composition of lipids extracted from S. platensis",24h,8.2 wt %
same,"linolenic acid 18:3 (n-6), fatty acid composition of lipids extracted from S. platensis",24h,19.5 wt %
same,"oleic acid 18:1, fatty acid composition of lipids extracted from S. platensis",24h,4.0 wt %
same,"palmitic acid 16:0, fatty acid composition of lipids extracted from S. platensis",24h,30.7 wt %
same,"palmitoleic acid 16:1, fatty acid composition of lipids extracted from S. platensis",24h,4.7 wt %
same,"stearic acid 18:0, fatty acid composition of lipids extracted from S. platensis",24h,0.9 wt %
same,"6,9,11 - 18:3 (desaturated metabolite), fatty acid composition of lipids extracted from S. platensis",48h,5.1 wt %
same,"9,11 - 18:2 (substrate taken up), fatty acid composition of lipids extracted from S. platensis",48h,21.2 wt %
same,"Amount, total weight of lipid in extract",48h,188.3 µg
same,"linoleic acid 18:2, fatty acid composition of lipids extracted from S. platensis",48h,6.9 wt %
same,"linolenic acid 18:3 (n-6), fatty acid composition of lipids extracted from S. platensis",48h,19.0 wt %
same,"oleic acid 18:1, fatty acid composition of lipids extracted from S. platensis",48h,8.6 wt %
same,"palmitic acid 16:0, fatty acid composition of lipids extracted from S. platensis",48h,32.7 wt %
same,"palmitoleic acid 16:1, fatty acid composition of lipids extracted from S. platensis",48h,5.3 wt %
same,"stearic acid 18:0, fatty acid composition of lipids extracted from S. platensis",48h,1.2 wt %
same,"6,9,11 - 18:3 (desaturated metabolite), fatty acid composition of lipids extracted from S. platensis",72h,5.7 wt %
same,"9,11 - 18:2 (substrate taken up), fatty acid composition of lipids extracted from S. platensis",72h,16.2 wt %
same,"Amount, total weight of lipid in extract",72h,211.8 µg
same,"linoleic acid 18:2, fatty acid composition of lipids extracted from S. platensis",72h,4.9 wt %
same,"linolenic acid 18:3 (n-6), fatty acid composition of lipids extracted from S. platensis",72h,16.5 wt %
same,"oleic acid 18:1, fatty acid composition of lipids extracted from S. platensis",72h,15.4 wt %
same,"palmitic acid 16:0, fatty acid composition of lipids extracted from S. platensis",72h,34.3 wt %
same,"palmitoleic acid 16:1, fatty acid composition of lipids extracted from S. platensis",72h,5.4 wt %
same,"stearic acid 18:0, fatty acid composition of lipids extracted from S. platensis",72h,1.7 wt %
same,"6,9,11 - 18:3 (desaturated metabolite), fatty acid composition of lipids extracted from S. platensis",96h,5.8 wt %
same,"9,11 - 18:2 (substrate taken up), fatty acid composition of lipids extracted from S. platensis",96h,10.5 wt %
same,"Amount, total weight of lipid in extract",96h,166.2 µg
same,"linoleic acid 18:2, fatty acid composition of lipids extracted from S. platensis",96h,3.9 wt %
same,"linolenic acid 18:3 (n-6), fatty acid composition of lipids extracted from S. platensis",96h,15.1 wt %
same,"oleic acid 18:1, fatty acid composition of lipids extracted from S. platensis",96h,21.6 wt %
same,"palmitic acid 16:0, fatty acid composition of lipids extracted from S. platensis",96h,35.4 wt %
same,"palmitoleic acid 16:1, fatty acid composition of lipids extracted from S. platensis",96h,5.7 wt %
same,"stearic acid 18:0, fatty acid composition of lipids extracted from S. platensis",96h,1.9 wt %
same,incorporation into the lipids of S. platensis,substrate added exogenously,rapidly take up the compound
"CCCCC/C=C\C=C\CCCCCCCCC(=O)O [10-t,12-c-octadecadienoic acid]","metabolite formed, share of the conjugated acids",96 hours incubation,18 % of the conjugated acids
same,"metabolite formed, share of the total fatty acids","96 hours incubation, GC retention time expected for 6-c,10-t,12-c-octadecatrienoic acid",6.4 % of the total fatty acids
same,incorporation into the lipids of S. platensis,substrate added exogenously,rapidly incorporated
